This is an account of results in EP4050002A1, “ANTI-PROLIFERATIVE AGENTS” (First Health Pharmaceuticals B.V., priority 2021, dated 2022).

Like-named read-outs stand apart in the source and are kept apart here.

A short description of data set [1]: Plasma protein binding (rapid equilibrium dialysis). Particulars: for fraction unbound at 5 h, 10 µM: read-out: % Bound in Plasma ± SD (converted); for recovery at 5 h, 10 µM: read-out: % Recovery ± SD. Format: in vitro ADME. How it is done: In vitro evaluation of test compounds for protein binding in plasma was performed using the rapid equilibrium dialysis method. Ready to use PBS, 9.07-10.00 g, (Sigma Aldrich, catalogue code P3813) was dissolved in 1l of MilliQ water and pH was adjusted to 7.4. 10 mM stock of the test compound was prepared in DMSO. 1 mM solution was prepared by diluting 10 mM stock in methanol. 10 µM working stock was prepared in plasma by spiking 3 µl of 1 mM solution into 297 µl of plasma. An aliquot of 200 µl of plasma containing test compound was spiked into donor well (red chamber) of the insert. 350 µl of PBS was spiked into receiver well (white chamber) of the insert. The plate was incubated at 37 °C in thermo-mixer at 400 rpm for 5 hours. The samples were matrix equilibrated with opposite matrix: 25 µl of plasma sample was matched with 25 µl of blank buffer (PBS) and 25 µl of buffer sample was matched with 25 µl of plasma.
Matrix matched samples were precipitated with 200 µl of acetonitrile containing Telmisartan 100 ng/ml as internal standard. Buffer samples were of phosphate buffer saline pH 7.4 incubated for 5.5 h along with plasma samples. Blank samples were the ones matched with Phosphate buffer Saline pH 7.4 maintained at room temperature.
Samples were vortexed at 1000 rpm for 5 min and centrifuged at 4000 rpm for 10 min. Supernatant was separated, diluted 2 fold with water and analyzed in LC-MS/MS.
To control samples were processed immediately after the preparation of plasma working stock solutions. These samples serve as a measure for calculating the percentage recovery from plasma and buffer of test compounds. The percentage of plasma unbound (% Unbound) and bound (% Bound) fractions were calculated by the following equations: %Unbound = (1−((Tc−Fc))/(Tc))∗100 [formula] %Bound = 100−%Unbound [formula] %Recovery = 100∗(Fc + Tc)/(T0) [formula]
TC = Compound concentration as determined by the calculated concentration on the plasma side of the membrane (donor well); FC = Free compound concentration as determined by the calculated concentration on the buffer side of the membrane (receiver well); T0 = Total compound concentration as determined before dialysis.
The API400 MS and Agilent 1260 Multi sampler LC were used, with 10 uL injection volumes. Typically, plasma protein binding is determined over ≥ 4 hours at 37°C. Under these conditions chemical and/or enzymatic degradation of compounds can occur. The determination of compound recovery is, therefore, of pivotal importance. A low % recovery can flag a variety of potential problems: • The compound is hydrolytically or metabolically unstable • The compound is highly bound to the rapid equilibrium dialysis device • The compound is poorly soluble

Data set [2] is described as follows: Plasma stability. Particulars: Human plasma. Format: in vitro ADME. The procedure:
(§1) Plasma previously separated from whole blood in EDTA-treated tubes and frozen; blood samples obtained from healthy volunteers, Sprague Dawley rats and CD1 mice, was thawed at room temperature and centrifuged at 1400x RCF 4°C, for 15 minutes. Approximately 90% of the clear supernatant fraction was transferred to a separate tube and was used for the assay.
(§2) Stocks (1 mM and 25 µM) of test compound were prepared in acetonitrile:water (50:50 v/v). Plasma samples were heat inactivated at 54°C. 3 µl of 25 µM test compound were added to 72 µl of heat inactivated plasma. A 50 µL aliquot of the mixture was taken and crashed with 200 µl of acetonitrile containing Telmisartan 100 ng/ml as internal standard and was further processed along with other time points: 10, 30 60 and 120 minutes.
(§3) Final working stock of 1 µM was prepared by diluting 12 µl of 25 µM stock in 288 µl of plasma. The obtained solution (300 µl) of plasma containing the test compound was incubated for […] at 37°C in shaker water bath with gentle shaking. 50 µl aliquot of sample at 10, 30, 60 and 120 min was precipitated immediately with 200 µl of acetonitrile containing internal standard and centrifuged at 4000x RCF, 4°C for 20 minutes. 150 µl of supernatant was diluted with 150 µl of water and analyzed by LC-MS/MS.
(§4) The % remaining of the test substance was calculated as: (Peak Area ratio at time (min))/(Peak Area Ratio at 0 min) ^∗ 100
(§5) The API400 MS and Agilent 1260 Infinity LC were used. Mobile Phase included 10mM Ammonium acetate with 0.1% formic acid in MilliQ water, and Methanol. The column was Phenomenex, KINETIC EVO C18 100A 5u 50^∗4.6 mm, 10 µl injection volume.

For data set [3], the system named is Non-small cell lung cancer (cell line A549). Put plainly: Subcutaneous xenograft mice model. Format: in vivo, nude FOXN1nu/nu mice. Particulars: 45 mg/Kg I.P. every Monday, Wednesday and Friday for 5 weeks. The procedure: (§6) Human cancer cell lines were inoculated subcutaneously in nude FOXN1^nu/nu mice (Envigo spa) in both flanks.
(§7) The number of cells inoculated varied between different cell lines: • A549 and A549 Red-FLuc: 5 x 10^6 in medium:matrigel (1:1 v/v) • MDAMB231: 2.8 x 10^6 in medium:matrigel (1:2 v/v)
(§8) When tumors reach the appropriate volume for each cell line, the compounds were administered I.P. every 48 hours, 3 times a week every Monday, Wednesday and Friday for 5 weeks, at a dose selected from the PK study, as follows: • vehicle: 10% DMSO, 5% TWEEN 80 and WFI (85%) • treatment group dose: 45 mg/kg • control group: vehicle only • dose concentration: 12 mg/ml in 10% DMSO, 5% TWEEN 80 and WFI (85%) • volume: 5 ml/kg
(§9) Tumor volume was evaluated twice a week with caliper and calculated with the standard formula (Length ^∗ Height ^∗ Height)/2. Mice were weighed twice a week. Tumor growth is calculated with respect to the first day of treatment (day 0) as ratio between the volume at each day of measurement and day 0.

The test system of data set [4] is Non-small cell lung cancer engineered with a luciferase reporter (cell line A549 Red-FLuc). In words: Subcutaneous xenograft mice model. It is filed as in vivo, nude FOXN1nu/nu mice. Particulars: 45 mg/Kg I.P. every Monday, Wednesday and Friday for 5 weeks. The procedure:
as §6, §7, §8, §9

Data set [5] deals with Triple negative breast cancer (cell line MDA-MB-231). Put plainly: Subcutaneous xenograft mice model. It is filed as in vivo, nude FOXN1nu/nu mice. As to conditions: MDA-MB-231 xenograft, 45 mg/Kg I.P. every Monday, Wednesday and Friday for 5 weeks. How it is done:
as §6, §7, §8, §9

The nature of data set [6]: Plasma stability. Format: in vitro ADME, CD1 mice. Particulars: Mouse plasma. How it is done:
as §1, §2, §3, §4, §5

The nature of data set [7]: Tissue distribution after single I.P. administration. Format: in vivo, male Swiss Albino Mice.

Consider `CCCCc1cn(-c2ccc(-c3nnc(-c4ccccc4C(F)(F)F)o3)cc2)nn1` [Compound 5], for which the values for the fraction unbound at 5 h, 10 µM in data set [1] (Human plasma), in data set [1] (Mouse plasma) and in data set [1] (Rat plasma) were 0.0022, 0.0003 and 0.0005, respectively. Further, the recovery at 5 h, 10 µM was determined as 79 ± 0.99% in data set [1] (Human plasma), 83.7 ± 13.4% in data set [1] (Mouse plasma) and 63.4 ± 2.74% in data set [1] (Rat plasma). Also, the “% Remaining ± SD” value in data set [2] (0 minutes) is given as 100.0 ± 3.9%; in data set [2] (10 minutes) it was 107.1 ± 7.7%; in data set [2] (30 minutes) it was 87.2 ± 10.3%; in data set [2] (60 minutes), 88.3 ± 7.0%; in data set [2] (120 minutes) it was 88.2 ± 8.2%; in data set [6] (0 minutes) it was 100.0 ± 1.8%. Moreover, the “% Remaining ± SD” value in data set [6] (10 minutes) stood at 117.2 ± 8.6%; in data set [6] (30 minutes) it was 111.1 ± 0.3%; in data set [6] (60 minutes) it was 108.2 ± 4.8%; in data set [6] (120 minutes), 123.2 ± 26.5%. Moreover, the tumor growth result in data set [3], in data set [4] and in data set [5] was “counteract tumor growth” each time. In addition, the Kidney to plasma in data set [7] (4 hours after single administration I.P. 45 mg/Kg) is 11.5; in data set [7] (8 hours after single administration I.P. 45 mg/Kg), 9.2; in data set [7] (24 hours after single administration I.P. 45 mg/Kg), 9.3.
